Data from patent US8735415B2, “Acid addition salts of (3,5-Bis trifluoromethyl)-N-[4-methyl-3-(4-pyridin-3yl-pyrimidin-2ylamino)-phenyl]-benzamide” (Natco Pharma Limited, priority 2004, dated 2014).
≈ marks a conversion by molar mass, not a printed value.

How the values were obtained:
[1] = Solubility by the shake flask method; settings: for Solubility (mg/ml): Medium: Water
Method: General conditions: Room temperature (25° C.), stirring speed: 200 RPM, Analytical method: UV

[2] = Flow properties, angle of repose; type: physicochemical
[3] = Stability under high humidity conditions (water content by Karl-Fischer method); type: physicochemical; settings: for Final moisture content - After 48 hours at 25° C. at humidity of 60%: humidity 60%; for Final moisture content - After 48 hours at 25° C. at humidity of 60% / Final moisture content - After 48 hours at 40° C. at humidity of 75% / Initial moisture content (%): Karl-Fischer; for Final moisture content - After 48 hours at 40° C. at humidity of 75%: humidity 75%; for Initial moisture content (%): before storage; for Hygroscopicity (conclusion in words): conclusion from Table 1
[4] = tested on: T315I cell line, chronic myelogenous leukemia (CML) mutant; assay: Activity in cell culture, T315I cell proliferation; type: cell-based; settings: for IC50: 0.625×10^5 cells/ml, 10 μM to 0.156 μM
Mice = assay: Maximum tolerated dose (MTD) for 14 days; type: in vivo; settings: for MTD (mg/kg, po): Mice, 14 days
Text: Maximum Tolerated Dose—Non-Toxic Nature

[5] = tested on: K562 cell line, chronic myelogenous leukemia (CML); assay: Activity in cell culture, K562 cell proliferation; type: cell-based; settings: for Potency in inhibiting cell proliferation compared with Imatinib: K562; for IC50: K562, 0.312×10^5 cells/ml, 72 Hrs, 10 μM to 0.156 μM
[6] = Bioavailability study in mice; type: in vivo
[7] = 0.1N HCl, 25 °C, simulated gastric fluid, thermodynamic from solid

Structure (SMILES)	solubility [1, 7] [µg/mL]	Angle of Repose (degrees °) [2] [degrees °]	Final moisture content - After 48 hours at 25° C. at humidity of 60% [3] [%]	Final moisture content - After 48 hours at 40° C. at humidity of 75% [3] [%]	Initial moisture content (%) [3] [%]	Hygroscopicity (conclusion in words) [3]	Potency in inhibiting cell proliferation compared with Imatinib [4]	MTD (mg/kg, po) (Mice)	Potency in inhibiting cell proliferation compared with Imatinib [5]	Solubility (mg/ml) ([1]; 25° C., 200 RPM, UV)	also measured
Cc1ccc(NC(=O)c2cc(C(F)(F)F)cc(C(F)(F)F)c2)cc1Nc1nccc(-c2cccnc2)n1.Cc1ccc(S(=O)(=O)O)cc1 [AN-019T, (3,5-Bis trifluoromethyl)-N-[4-methyl-3-(4-pyridin-3-yl-pyrimidin-2-ylamino)-phenyl]-benzamide 4-toluene sulfonate monohydrate]	40.2	30.74	2.7	2.8	2.7	non-hygroscopic	more potent than Imatinib	1000.0 mg/kg, po	more potent than Imatinib	–	Solubility compared with the other salts ([1]; conclusion from Table 2): improved solubility properties among other salts investigated; solubility ([1]; water, 25 °C, thermodynamic from solid): 7.8 µg/mL; Flow properties compared with the base ([2]; conclusion from Table 4): a lower angle of repose and better flow properties when compared with corresponding base; IC50 ([4]; 72 Hrs, monohydrate): 109 nM; Toxicity compared with the base (Mice; conclusion from Table 3, mice): substantially less toxic than the corresponding base; IC50 ([5]; monohydrate): 265 nM
Cc1ccc(NC(=O)c2cc(C(F)(F)F)cc(C(F)(F)F)c2)cc1Nc1nccc(-c2cccnc2)n1.Cl [(3,5-Bis trifluoromethyl)-N-[4-methyl-3-(4-pyridin-3-yl-pyrimidin-2-ylamino)-phenyl]-benzamide hydrochloride]	–	–	0.7	0.7	0.6	non-hygroscopic	–	–	–	Almost no	solubility ([1]; Medium: 0.1N HCl, 25° C., 200 RPM, UV): 13.4 µg/mL
Cc1ccc(NC(=O)c2cc(C(F)(F)F)cc(C(F)(F)F)c2)cc1Nc1nccc(-c2cccnc2)n1 [AN-019, (3,5-Bistrifluoromethyl)-N-[4-methyl-3-(4-pyridin-3-yl-pyrimidin-2-ylamino)-phenyl]-benzamide]	1.3 (≈ 2.51 µM)	41.57	–	–	–	–	more potent than Imatinib	500.0 mg/kg, po	more potent than Imatinib	Almost no	IC50 ([4]; 72 h): 99.3 nM; AUC [6]: 611.46 ng·h/mL; Cmax ([6]; mouse, in vivo): 93.7 ng/mL; Tmax ([6]; mouse, in vivo): 6 h; IC50 ([5]; Homo sapiens, K562, 72 h): 206 nM
CS(=O)(=O)O.Cc1ccc(NC(=O)c2cc(C(F)(F)F)cc(C(F)(F)F)c2)cc1Nc1nccc(-c2cccnc2)n1 [(3,5-Bis trifluoromethyl)-N-[4-methyl-3-(4-pyridin-3-yl-pyrimidin-2-ylamino)-phenyl]-benzamide methane sulfonate]	–	–	0.7	0.7	0.6	non-hygroscopic	–	–	–	–	–
